Values quoted from earlier work, collected in US10632107B2, “Crystalline forms of benzoquinoline inhibitors of vesicular monoamine transporter 2” (Apotex Inc., priority 2018, dated 2020).
Like-named read-outs stand apart in the source and are kept apart here.

solubility (low pH of the stomach): slight solubility
solubility (pH values of greater than 4): practically insoluble
Compound: COc1cc2c(cc1OC)C1CC(=O)C(CC(C)C)CN1CC2 (racemic) [Tetrabenazine, rel-(3R,11bR)-1,3,4,6,7,11b-hexahydro-9,10-dimethoxy-3-(2-methylpropyl)-2H-benzo[a]quinolizin-2-one]
